Test results reported in PMC9133036 (Nature Communications, 2022).
Several values for one entry are separate records, joined by “and”; a condition that tells them apart may be missing. Equal values may be shown once. Read-outs that look alike come from different tables or passages of the source.

Tests used:
Assay type in all cases: cell-based
[1] = target: T1, human OX2R wild type (Homo sapiens, UniProt O43614); test: β-arrestin PathHunter assay, OX2R WT; parameters: expressed in transfected cells; host or cells: CHO-K1 stably expressing EA β-arrestin2; conditions: listed as OxB
T1 sequence (O43614 1-444): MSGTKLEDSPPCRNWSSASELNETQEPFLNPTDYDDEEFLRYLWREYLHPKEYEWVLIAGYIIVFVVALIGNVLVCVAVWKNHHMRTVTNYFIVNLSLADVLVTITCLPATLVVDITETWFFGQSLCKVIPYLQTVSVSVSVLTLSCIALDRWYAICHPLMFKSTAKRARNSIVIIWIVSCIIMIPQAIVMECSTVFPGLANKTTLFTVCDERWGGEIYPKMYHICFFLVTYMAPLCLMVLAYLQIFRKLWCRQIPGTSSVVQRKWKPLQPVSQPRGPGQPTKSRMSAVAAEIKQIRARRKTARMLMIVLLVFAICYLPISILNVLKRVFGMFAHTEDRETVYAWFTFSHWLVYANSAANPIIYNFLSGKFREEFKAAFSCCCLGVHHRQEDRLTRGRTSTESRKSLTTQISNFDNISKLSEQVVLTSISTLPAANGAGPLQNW
Description: β-Arrestin recruitment activity was measured by using the PathHunter system (DiscoveRX) according to the manufacturer’s instruction. Receptor constructs used were the full-length wild-type (or mutant) human OX2R sequences cloned into pCMV-ProLink (DiscoveRX). […] Cells were transfected with plasmids encoding wild type or each mutant ProLink-tagged human OX2R using FuGENE HD (Promega). […] Detection reagent was added and incubated for 1 h at room temperature. Luminescent signal was detected using an EnVision plate reader (PerkinElmer). β-arrestin assays on different constructs were performed in two or three independent experiments (each done in quadruplicate). Dose response curves (shown in Supplementary Fig. 8) were fitted to the three-parameter model ‘log(agonist) vs response’ in GraphPad Prism to determine pEC50 values.

[2] = target: T2, OX2R W120A (Homo sapiens, UniProt O43614, W120A); test: β-arrestin PathHunter assay, OX2R W120A; conditions: β-arrestin recruitment
T2 construct: expressed in transfected cells; host or cells: CHO-K1 stably expressing EA β-arrestin2
T2 sequence (O43614 whole entry W120A): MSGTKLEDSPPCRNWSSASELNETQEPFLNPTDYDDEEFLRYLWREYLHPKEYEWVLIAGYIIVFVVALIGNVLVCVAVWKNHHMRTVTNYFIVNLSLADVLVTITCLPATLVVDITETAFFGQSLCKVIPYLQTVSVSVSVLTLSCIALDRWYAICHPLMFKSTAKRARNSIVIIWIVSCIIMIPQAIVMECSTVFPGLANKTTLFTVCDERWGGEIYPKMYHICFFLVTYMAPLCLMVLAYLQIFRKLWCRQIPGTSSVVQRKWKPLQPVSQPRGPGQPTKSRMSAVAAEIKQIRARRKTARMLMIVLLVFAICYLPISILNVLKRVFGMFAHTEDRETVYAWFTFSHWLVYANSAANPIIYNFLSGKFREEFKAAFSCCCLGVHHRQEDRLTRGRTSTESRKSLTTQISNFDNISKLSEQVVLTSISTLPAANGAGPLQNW
Description: β-Arrestin recruitment activity was measured by using the PathHunter system (DiscoveRX) according to the manufacturer’s instruction. Receptor constructs used were the full-length wild-type (or mutant) human OX2R sequences cloned into pCMV-ProLink (DiscoveRX). CHO-K1 cells stably expressing EA β-arrestin2 (DiscoveRX) were plated on 384 well white plates (Thermo Fisher) at 4000 cells/well in HamF12 (Wako Pure Chemical Industries) supplemented with 10% fetal bovine serum (Corning) and penicillin-streptomycin (Wako Pure Chemical Industries) and incubated overnight at 37 °C under 5% CO2. Cells were transfected with plasmids encoding wild type or each mutant ProLink-tagged human OX2R using FuGENE HD (Promega). […] Detection reagent was added and incubated for 1 h at room temperature. Luminescent signal was detected using an EnVision plate reader (PerkinElmer). β-arrestin assays on different constructs were performed in two or three independent experiments (each done in quadruplicate). Dose response curves (shown in Supplementary Fig. 8) were fitted to the three-parameter model ‘log(agonist) vs response’ in GraphPad Prism to determine pEC50 values.

[3] = target: T3, OX1R S103T (Homo sapiens, UniProt O43613, S103T); test: IP accumulation assay, OX1R S103T
T3 construct: FLAG; expressed in transfected cells; host or cells: HEK293
T3 sequence (O43613 1-425 S103T): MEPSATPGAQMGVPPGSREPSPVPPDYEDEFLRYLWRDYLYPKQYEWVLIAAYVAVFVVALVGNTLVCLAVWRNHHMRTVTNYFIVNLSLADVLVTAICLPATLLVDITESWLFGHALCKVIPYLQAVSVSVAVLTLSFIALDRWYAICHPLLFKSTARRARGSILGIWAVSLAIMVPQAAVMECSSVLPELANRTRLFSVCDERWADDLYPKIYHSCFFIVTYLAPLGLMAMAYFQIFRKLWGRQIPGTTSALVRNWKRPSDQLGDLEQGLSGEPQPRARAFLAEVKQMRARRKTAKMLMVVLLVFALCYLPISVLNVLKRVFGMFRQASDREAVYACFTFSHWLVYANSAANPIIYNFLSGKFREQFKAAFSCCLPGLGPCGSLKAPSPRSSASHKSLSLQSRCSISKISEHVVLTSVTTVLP
Description: The IP assay was adapted from a prior precedent. HEK293 cells were maintained in DMEM-high glucose (Millipore Sigma) supplemented with 5% fetal bovine serum (Corning) and penicillin-streptomycin (Millipore Sigma). Receptor constructs used were the full-length wild-type (or mutant) human OX1R and OX2R sequences cloned into pCDNA3. To enhance the Emax in the IP assay, a plasmid encoding full-length human Gαq subunit[66] was co-transfected into HEK293 cells with plasmids encoding orexin receptor constructs using Lipofectamine 3000 (Thermo Fisher). 24 h after transfection, the cells were plated on poly-D-lysine coated (Millipore Sigma) tissue culture-treated 96 well white plates with clear bottoms (Perkin Elmer) at 30,000 cells per well in Inositol-free DMEM (MP Biomedicals) supplemented with 5% fetal bovine serum, 4 mM L-glutamine (Millipore Sigma), penicillin-streptomycin, and about 5 uCi (5 ul) per ml myo-[2-3H] inositol (Perkin Elmer). The following day, the media was replaced with agonists that were diluted in HBSS (Millipore Sigma) containing 10 mM lithium chloride (Millipore Sigma) and incubated at 37 °C for 45 min. Then agonists were removed and cells were lysed on ice for 30 min with 10 mM formic acid (Millipore Sigma). 1.25 mg of poly-lysine coated YSI SPA beads (Perkin Elmer) was added to each well. The plates were mixed on an orbital shaker for 30 min. The plates were read on a MicroBeta scintillation counter (Perkin Elmer) the following day. IP accumulation assays on different constructs were performed in n ≥ 3 independent experiments (each done in duplicate), where n is shown in Supplementary Table 2.

Row | EC50 ([2]; read-out: EC50) | EC50 ([2]; read-out: pEC50 (converted)) | activation at 100 µM ([3]; 0.75 h, TAK-925 conc (log, M) -4.00) | activation at 11.2 µM ([3]; 0.75 h, TAK-925 conc (log, M) -4.95) | activation at 3.72 µM ([3]; 0.75 h, TAK-925 conc (log, M) -5.43) | activation at 1.23 µM ([3]; 0.75 h, TAK-925 conc (log, M) -5.91) | activation at 0.0457 µM ([3]; 0.75 h, TAK-925 conc (log, M) -7.34) | EC50 ([3]; IP accumulation) | Emax ([3]; relative to OX1R S103T/A127T/TAK-925) | Compound | beta-arrestin recruitment fold change ([1]; OxB concentration -6.00 (log, M)) | beta-arrestin recruitment fold change ([1]; OxB concentration -6.52 (log, M)) | beta-arrestin recruitment fold change ([1]; OxB concentration -7.00 (log, M)) | beta-arrestin recruitment fold change ([1]; OxB concentration -7.52 (log, M)) | beta-arrestin recruitment fold change ([1]; OxB concentration -8.00 (log, M)) | beta-arrestin recruitment fold change ([1]; OxB concentration -8.52 (log, M)) | beta-arrestin recruitment fold change ([1]; OxB concentration -9.00 (log, M)) | beta-arrestin recruitment fold change ([1]; OxB concentration -10.00 (log, M))
1 | – | – | – | – | – | – | – | – | – | orexin B | 25.382 fold and 21.415 fold and 21.711 fold and 14.809 fold | 25.694 fold and 21.531 fold and 23.664 fold and 15.569 fold | 27.509 fold and 22.224 fold and 24.930 fold and 18.908 fold | 19.878 fold and 18.553 fold and 19.712 fold and 17.639 fold | 16.213 fold and 13.992 fold and 16.040 fold and 14.141 fold | 11.509 fold and 10.398 fold and 11.514 fold and 8.169 fold | 4.809 fold and 5.512 fold and 5.245 fold and 5.387 fold | 1.518 fold and 1.553 fold and 1.554 fold and 2.080 fold
2 | > 30 µM | > 30.2 µM | 122% | 88.4% | 57.1% | 21.9% | 9.04% | 5.3 µM | 130 | COC(=O)N1CCC[C@H](NS(C)(=O)=O)[C@@H]1CO[C@H]1CC[C@@H](c2ccccc2)CC1 [TAK-925, methyl (2R,3S)−3-[(methylsulfonyl)amino]−2-{[(cis−4-phenylcyclohexyl)oxy]methyl}piperidine-1-carboxylate] | – | – | – | – | – | – | – | –
